Measurements: ChEMBL document CHEMBL3396983, “Synthesis of erythrocentaurin derivatives as a new class of hepatitis B virus inhibitors” (Bioorg Med Chem Lett, 2015)

Key:
[1] = Selectivity index, ratio of CC50 for human HepG2(2.2.15) cells to IC50 for inhibition of HBV DNA replication in HepG2(2.2.15) cells; format: functional
Hepatitis B virus [2] = test: Inhibition of HBV HBeAg secretion in HepG2(2.2.15) cells after 72 hrs by ELISA method; format: functional, organism-based; details: HepG2 2.2.15, 72 h
Hepatitis B virus [3] = test: Inhibition of HBV HBsAg secretion in HepG2(2.2.15) cells after 72 hrs by ELISA method; format: functional, organism-based; details: HepG2 2.2.15, 72 h
Hepatitis B virus [4] = test: Inhibition of HBV DNA replication in HepG2(2.2.15) cells exposed to fresh medium supplemented with compound every other day for additional 5 days by real-time PCR-fluorescent probing method; format: functional, organism-based; details: HepG2 2.2.15, 120 h
[5] = Selectivity index, ratio of CC50 for human HepG2(2.2.15) cells to IC50 for inhibition of HBV HBsAg secretion in HepG2(2.2.15) cells; format: functional
[6] = Cytotoxicity against human HepG2(2.2.15) cells after 72 hrs by MTT assay; format: cell-based
[7] = Selectivity index, ratio of CC50 for human HepG2(2.2.15) cells to IC50 for inhibition of HBV HBeAg secretion in HepG2(2.2.15) cells; format: functional

Compound	IC50 (Hepatitis B virus [2]) [µM]	IC50 (Hepatitis B virus [3]) [µM]	IC50 (Hepatitis B virus [4]) [µM]	Ratio CC50/IC50 [1]	Ratio CC50/IC50 [5]	CC50 at 72 h [6] [µM]	Ratio CC50/IC50 [7]
O=C(OCc1cccc2c1CCOC2=O)c1cc2ccccc2o1	> 2670	1630	540	1.5	<1	830	–
O=C1/C(=C/c2cccc3c2CCOC3=O)Oc2cc(O)ccc21	> 1810	> 1810	> 450	–	–	> 1810	–
O=C1OCCc2c(/C=N/Nc3ccc([N+](=O)[O-])cc3[N+](=O)[O-])cccc21	1340	> 1650	> 410	–	–	> 1650	>1.2
CCCCCCCC(=O)OCc1cccc2c1CCOC2=O	> 3450	> 3450	> 860	–	–	> 3450	–
CCC(CC)C(=O)OCc1cccc2c1CCOC2=O	> 2590	> 2590	> 650	–	–	1890	–
CCOCC(=O)OCc1cccc2c1CCOC2=O	> 3680	> 3680	> 920	–	–	> 3680	–
O=C1OCCc2c(COC(=O)C3CCCCC3)cccc21	> 1840	> 1840	26	>70.8	–	> 1840	–
O=C(OCc1cccc2c1CCOC2=O)c1cccc([N+](=O)[O-])c1	> 2720	> 2720	> 680	–	–	> 2720	–
O=C(OCc1cccc2c1CCOC2=O)c1ccc([N+](=O)[O-])cc1	> 2260	> 2260	> 560	–	–	> 2260	–
O=C(O)c1ccccc1C(=O)OCc1cccc2c1CCOC2=O	56	72	84	1.6	1.8	130	2.3
O=C(OCc1cccc2c1CCOC2=O)c1ccco1	> 2350	> 2350	> 840	–	–	> 2350	–
O=C(OCc1cccc2c1CCOC2=O)c1cccnc1	> 2700	> 2700	> 680	–	–	> 2700	–
COc1cccc(/C=C/C(=O)OCc2cccc3c2CCOC3=O)c1	840	> 1620	45	>36	–	> 1620	>1.9
O=C(OCc1cccc2c1CCOC2=O)c1cc2ccccc2[nH]1	> 2050	> 2050	77	>26.6	–	> 2050	–
O=C(OCc1cccc2c1CCOC2=O)c1cc(=O)c2ccccc2o1	1810	2300	520	4.9	1.1	2570	1.4
C[C@H](Cn1cnc2c(N)ncnc21)OCP(=O)(O)O [TENOFOVIR ANHYDROUS]	1940	2320	0.5	>3571.3	–	1850	–

Further lines, with some results ahead:

IC50 (Hepatitis B virus [2]) [µM]	IC50 (Hepatitis B virus [3]) [µM]	IC50 (Hepatitis B virus [4]) [µM]	Compound	Ratio CC50/IC50 [1]	Ratio CC50/IC50 [5]	CC50 at 72 h [6] [µM]	Ratio CC50/IC50 [7]
1140	1300	760	O=Cc1cccc2c1CCOC2=O	2.3	1.4	1760	1.5
1460	2700	170	O=C1OCCc2c(CO)cccc21	>22.4	>1.4	> 3800	>2.6
2950	3180	390	O=C(O)c1cccc2c1CCOC2=O	>11.6	>1.4	> 4540	>1.5
> 3290	> 3290	820	NC(=O)c1cccc2c1CCOC2=O	>4	–	> 3290	–
2840	2240	380	N=C(N)c1cccc2c1CCOC2=O	5.4	–	2050	–
2330	> 4000	360	O=C1OCCc2c(/C=N\O)cccc21	>11.1	–	> 4000	>1.7
2180	> 2580	570	O=C1OCCc2c1cccc2C1OCCO1	>4.5	–	> 2580	>1.2
> 2160	> 2160	80	O=C1OCCc2c(/C=C\c3ccccc3)cccc21	>27	–	> 2160	–
> 2430	> 2430	110	O=C1OCCc2c(/C=C/c3ccccc3)cccc21	>22.1	–	> 2430	–
> 2430	1310	> 860	CC(=O)OCc1cccc2c1CCOC2=O	–	>1.8	> 2430	–
